Experiments:
Assay type in all cases: in vivo
sheep [1] = assay: Metabolic chamber trial of sheep drenched with vitamin K3
Method: Six one year old self shedding wether Wiltshire sheep were ranked by body weight and divided in to three strata or blocks. Block one contained the lightest sheep. Block 2 the mid-sized sheep, and Block 3 the heaviest sheep. Each of the sheep in each block was assigned at random to either be a control or experimental (dosed) individual.
The control group were not dosed at all.
Testing was completed at dosing and after 24 hours of methane emissions using a metabolic chamber. • The metabolic chamber used was made of sealed panel. All joints were made gas tight by sealing compounds, and the doors and hatches were made gas tight by rubber seals. The gas-tight metabolic chamber had viewing windows on one side, the top, and the exit door. Sheep entered after being weighed through an entrance door at one end. All doors and hatches were sealed by pull-down latches. • Air was introduced into the chamber by a 25 mm pipe assembly with the intake located in a pure air space area outside the work and animal holding areas. The air was propelled into the chamber by an electric impeller. The flow rate was set at 5 m·s^−1. Air inside the chamber was mixed by carefully placed baffles and an electric impeller to ensure even composition even when the animal burped out methane periodically.
When a sheep was introduced into the chamber it generally took between 2 and 3 minutes before the gas composition equilibrated and stayed constant. Readings were taken for few minutes once the gas levels had stabilised.
The dosing compound used as noted above, was human grade synthetic vitamin K3. This was dosed to the sheep as an aqueous oral fed drench.
A longer trial to the above was then completed with the same sheep.
Methane, carbon dioxide, volatile organic carbon (VOC) gas emissions and weight gain were measured at intervals during the trial time period of 241.2 hours.
Between being brought in for weighing and measuring, the sheep were allowed to graze normally on a grass field.

sheep [2] = assay: Sheep weight gain trial, vitamin K3 in drinking water, 22 days
Source text: A trial was completed using three randomly selected Wiltshire hogget wether sheep as the test subjects chosen from a wider group of sheep.
The test subject sheep were allowed access to the dosed water for a total of 5 days, after which the confinement was removed and the test subject and un-dosed control sheep mixed in the same field. From day 6 the test sheep grazed the wider field and received only un-dosed tap water, identical to the control sheep (see below).
The remaining wider group of sheep post removal of the three test subject sheep became the control sheep which were contained in a wider part of the same field as the test subject sheep for the first five days and then mixed with the test subject sheep after five days as noted above. The control sheep had access ad libitum to un-dosed tap water during the first five days of the trial and, as noted, the test sheep and control sheep both had access to the same tap water source ad libitum post the initial five days and to the trial end.
To account for this, two mature ewes from a neighbouring property (“naïve” sheep controls) were introduced to graze in the same field as the control sheep (and post day 5, the control and test sheep). The naïve sheep also had ad libitum access to un-dosed tap water for the duration of the trial. It was envisaged that the naïve sheep would re-infect the control and test sheep with methanogens once in the same field.
The sheep from each group were weighed at the start of the trial and after 22 days had concluded. The weight gain (or loss) was then calculated being the difference between the 22 day weight and that measured at the trial start.

sheep [3] = assay: Sheep methane output trial, vitamin K3 in drinking water; details: approximately 2 g per 20 litres drinking water; 48 h to 148 h, FIG. 21
Method: A trial was completed using Wiltshire hogget wether sheep.
The test sheep were able to drink further dosed water ad libitum while control sheep only had ad libitum access to tap water (un-dosed). Methane emitted by the test and control sheep was collected and emissions measured at intervals (48 h, 96 h, 120 h, 148 h).

sheep [4] = assay: TVOC and HCHO in exhalant breath of sheep dosed with vitamin K3 (skatole proxy)
Method: A trial was completed comparing the breath of test subject sheep dosed with vitamin K3 versus that of un-dosed sheep.
Total volatile organic compounds were measured in the exhalant breath of sheep. Two measurements were made being: • TVOC (Total Volatile Organic Compounds); and • HCHO (formaldehyde or equivalents).

sheep [5] = assay: CO2 in exhalant of sheep dosed with vitamin K3 in drinking water; details: FIG. 24
sheep [6] = assay: Metabolic chamber trial of sheep drenched with vitamin K3; details: Example 15 text; stated to be based on earlier experiments using the Douglas Bag technique
[7] = Controls group: un-dosed water in trial, but dosed with vitamin K3 around two months before
[8] = Dosed group: 1.87 g in 20 litres drinking water, access for 5 days

CC1=CC(=O)c2ccccc2C1=O [vitamin K3]
methane in one trial sheep (sheep [1]; Example 14, 24 hours post dosing): no detectable trace of methane | average reduction in methane emissions versus control sheep (sheep [1]; Example 14, single drench 75 mg (76 mg) in 15 ml water, dosing to 24 hours): 96.4% | distress during the trial (sheep [1]; Example 15): showed no distress | greatest reduction of methane emissions in any sheep (sheep [1]; Example 15): 100% | lowest value of the emission of methane from any sheep on any occasion (sheep [1]; Example 15): zero | CO2 concentration after dosing, before subtracting air baseline (sheep [1]; Example 15, FIG. 18, metabolic chamber, from 1271 ppm): 610 ppm | slope of best fit linear equation of mean body weight against HOURS (sheep [1]; Example 15, FIG. 19, R2=0.781): 2.18E-01 | total VOC in exhalant breath (sheep [1]; Example 15, FIG. 20): decreased over time | average reduction in methane emissions (sheep [1]; Example 15, single drench 75 mg in 15 ml water, 241.2 hours trial): 80.5% | duration of the reduction in methane emissions after the single dose (sheep [1]; Example 15, whole trial duration, no extra dosing): 241.2 h | Daily weight gain (sheep [2]; [7]): 0.064 | Wt. Gain (kg) after 22 days (sheep [2]; [7]): 1.400 kg | Daily weight gain (sheep [2]; [8]): 0.238 | Wt. Gain (kg) after 22 days (sheep [2]; [8]): 5.233 kg | methane emissions levels lower than control sheep (sheep [3]): 3-4 times | TVOC in breath, less than in un-dosed sheep (sheep [4]; FIG. 22): 4-5 times | impact on favourable indole compounds (sheep [4]; inventor's observations, dosed sheep thrived): no negative impact | CO2 volume produced, less than control sheep (sheep [5]): 3 × | average reduction in carbon dioxide emissions (sheep [6]): 92%

vitamin K
animal growth rate (sheep [1]; Example 15): increase in animal growth rate | weight gain of control group (dosed two months earlier) relative to naïve sheep (sheep [2]; 22 days): 4-5 ×

Source: patent US12263140B1, “Methods of reducing the production of greenhouse gases from animals” (AGRICULTURAL SCIENCES LIMITED, priority 2023, dated 2025)
